The values that follow come from patent publication US12486253B2, “Therapeutics for the degradation of mutant BRAF” (C4 THERAPEUTICS, INC., priority 2021, dated 2025).

The target of this assay is BRAF V600E (Homo sapiens, UniProt P15056, V600E). Put plainly: HiBiT cellular BRAF^V600E degradation assay. Particulars: for DC50: concentration at which 50% of total cellular BRAF^V600E is degraded; for Emax: read-out: HiBit 24 h Emax. It is filed as cell-based.
Where [1] appears, read: A375.10 cells, 24 h, residual protein remaining in the cell.

Where two headings read alike, the source gives them in different places.

Sequence of BRAF V600E (P15056 whole entry V600E): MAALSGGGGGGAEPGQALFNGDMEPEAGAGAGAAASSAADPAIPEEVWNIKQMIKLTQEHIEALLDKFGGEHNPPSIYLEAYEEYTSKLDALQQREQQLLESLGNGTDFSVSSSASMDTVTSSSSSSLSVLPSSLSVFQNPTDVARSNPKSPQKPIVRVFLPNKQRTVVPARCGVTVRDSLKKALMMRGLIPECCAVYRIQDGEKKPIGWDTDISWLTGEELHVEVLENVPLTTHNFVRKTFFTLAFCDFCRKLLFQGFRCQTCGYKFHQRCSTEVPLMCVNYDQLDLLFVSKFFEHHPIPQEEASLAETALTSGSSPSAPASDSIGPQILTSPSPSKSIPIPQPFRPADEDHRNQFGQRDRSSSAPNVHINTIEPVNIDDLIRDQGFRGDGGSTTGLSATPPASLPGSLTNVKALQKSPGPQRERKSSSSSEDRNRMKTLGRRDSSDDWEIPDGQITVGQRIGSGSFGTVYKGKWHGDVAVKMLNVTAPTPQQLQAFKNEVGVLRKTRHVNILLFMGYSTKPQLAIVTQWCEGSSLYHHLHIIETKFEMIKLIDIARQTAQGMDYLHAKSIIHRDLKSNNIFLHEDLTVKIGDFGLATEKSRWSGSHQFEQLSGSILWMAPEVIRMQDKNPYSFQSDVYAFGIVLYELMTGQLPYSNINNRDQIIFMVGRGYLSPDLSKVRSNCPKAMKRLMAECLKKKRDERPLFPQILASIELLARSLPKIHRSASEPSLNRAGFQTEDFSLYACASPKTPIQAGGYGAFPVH

For the molecule `CCN(C)S(=O)(=O)Nc1ccc(F)c(Oc2ccc3ncn([C@H]4CCC5(CCN(C(=O)CN6CCC(c7cc(F)c(NC8CCC(=O)NC8=O)cc7F)CC6)CC5)C4)c(=O)c3c2)c1C#N` (stereo partly drawn) [Example 67, 6-[2-cyano-3-[[ethyl(methyl)sulfamoyl]amino]-6-fluorophenoxy]-3-[(3S)-8-[2-[4-[4-[(2,6-dioxopiperidin-3-yl)amino]-2,5-difluorophenyl]piperidin-1-yl]acetyl]-8-azaspiro[4.5]decan-3-yl]-4-oxoquinazoline], the maximal effect (Emax) turned out to be 8.05%. Where the note is “A375.10 cells, 24 h”, this molecule yielded a 50% degradation concentration (DC50) of 5.31 nM.

Turning to `CCN(C)S(=O)(=O)Nc1ccc(F)c(Nc2ccc3ncn([C@H]4COC5(CCN(C(=O)CC6(O)CCN(c7cc8c(cc7F)c(N7CCC(=O)NC7=O)nn8C)CC6)CC5)C4)c(=O)c3c2)c1C#N` (single isomer, unassigned) [Example 178], under “A375.10 cells, 24 h”, it took 6.13 nM to reach half-maximal degradation (DC50). Besides, under setting [1], the Emax worked out at 19.1%.

Molecule `CCN(C)S(=O)(=O)Nc1ccc(F)c(Oc2ccc3ncn([C@H]4CCC5(CCN(C(=O)CC6(O)CCN(c7cc8c(cc7F)c(N7CCC(=O)NC7=O)nn8C)CC6)CC5)C4)c(=O)c3c2)c1C#N` [Example 159, 6-[2-cyano-3-[[ethyl(methyl)sulfamoyl]amino]-6-fluorophenoxy]-3-[(3S)-8-[2-[1-[3-(2,4-dioxo-1,3-diazinan-1-yl)-5-fluoro-1-methylindazol-6-yl]-4-hydroxypiperidin-4-yl]acetyl]-8-azaspiro [4.5]decan-3-yl]-4-oxoquinazoline] yielded a half-maximal degradation concentration (DC50) (A375.10 cells, 24 h) of 6.98 nM. Also, the Emax under setting [1] worked out at 18.8%.

`N#Cc1c(NS(=O)(=O)N2CCCCC2)ccc(F)c1Oc1ccc2ncn(-c3cnc(N4CCN(C(=O)CN5CCC(c6ccc(N[C@@H]7CCC(=O)NC7=O)cc6F)CC5)CC4)nc3)c(=O)c2c1` [Example 106, N-[2-cyano-3-[3-[2-[4-[2-[4-[4-[[(3R)-2,6-dioxopiperidin-3-yl]amino]-2-fluorophenyl]piperidin-1-yl]acetyl]piperazin-1-yl]pyrimidin-5-yl]-4-oxoquinazolin-6-yl]oxy-4-fluorophenyl]piperidine-1-sulfonamide]: the Emax was 16.7%. Also, the DC50 (A375.10 cells, 24 h) worked out at 43.6 nM.

`CCN(C)S(=O)(=O)Nc1ccc(F)c(Oc2ccc3ncc(C4COC5(CCN(C(=O)CN6CCC(c7ccc(NC8CCC(=O)NC8=O)cc7F)CC6)CC5)C4)cc3c2)c1C#N` (centres unmarked) [Example 218, 3-[6-[2-cyano-3-[[ethyl(methyl)sulfamoyl]amino]-6-fluorophenoxy]quinolin-3-yl]-8-[2-[4-[4-[(2,6-dioxopiperidin-3-yl)amino]-2-fluorophenyl]piperidin-1-yl]acetyl]-1-oxa-8-azaspiro[4.5]decane] gave a DC50 (A375.10 cells, 24 h) of 11.3 nM. Moreover, under setting [1], the maximal response (Emax) is 6.96%.

`CC(C)S(=O)(=O)Nc1ccc(F)c(Oc2ccc3ncn(-c4cnc(N5CCN(C(=O)CN6CCC(c7ccc(N[C@@H]8CCC(=O)NC8=O)cc7F)CC6)CC5)nc4)c(=O)c3c2)c1C#N` [Example 118, N-[2-cyano-3-[3-[2-[4-[2-[4-[4-[[(3R)-2,6-dioxopiperidin-3-yl]amino]-2-fluorophenyl]piperidin-1-yl]acetyl]piperazin-1-yl]pyrimidin-5-yl]-4-oxoquinazolin-6-yl]oxy-4-fluorophenyl]propane-2-sulfonamide]: for the setting “A375.10 cells, 24 h”, half-maximal degradation (DC50) was put at 18.7 nM. For the same molecule, under setting [1], the Emax is 9.98%.

For the setting “A375.10 cells, 24 h”, `CCN(C)S(=O)(=O)Nc1ccc(F)c(Oc2ccc3ncn([C@H]4CCC5(CCN(C(=O)CN6CCC(c7ccc(NC8CCC(=O)NC8=O)cc7F)CC6)CC5)C4)c(=O)c3c2)c1C#N` (single isomer, unassigned) [Example 40] displayed a DC50 of 8.13 nM. Further, the Emax under setting [1] stood at 7.08%.

`CCN(C)S(=O)(=O)Nc1ccc(F)c(Oc2ccc3ncn(-c4cnn(C5CCN(C(=O)CN6CCC(c7ccc(NC8CCC(=O)NC8=O)c(F)c7)CC6)CC5)c4)c(=O)c3c2)c1C#N` (centres unmarked) [Example 19, 6-[2-cyano-3-[[ethyl(methyl)sulfamoyl]amino]-6-fluorophenoxy]-3-[1-[1-[2-[4-[4-[(2,6-dioxopiperidin-3-yl)amino]-3-fluorophenyl]piperidin-1-yl]acetyl]piperidin-4-yl]pyrazol-4-yl]-4-oxoquinazoline]: the maximal effect (Emax) stood at 20.6%. This molecule gave a 50% degradation concentration (DC50) (A375.10 cells, 24 h) of 42.3 nM.

Turning to `CCN(C)S(=O)(=O)Nc1ccc(F)c(Oc2ccc3ncn(C4COC5(CCN(C(=O)CN6CCC(c7ccc(NC8CCC(=O)NC8=O)cc7F)CC6)CC5)C4)c(=O)c3c2Cl)c1C#N` (centres unmarked) [Example 71, 3-[5-chloro-6-[2-cyano-3-[[ethyl(methyl)sulfamoyl]amino]-6-fluorophenoxy]-4-oxoquinazolin-3-yl]-8-[2-[4-[4-[(2,6-dioxopiperidin-3-yl)amino]-2-fluorophenyl]piperidin-1-yl]acetyl]-1-oxa-8-azaspiro[4.5]decane], the DC50 (A375.10 cells, 24 h) worked out at 37.6 nM. For the same molecule, the maximum response (Emax) under setting [1] worked out at 10.5%.

`CCN(C)S(=O)(=O)Nc1ccc(F)c(Oc2ccc3ncn(C4CCC5(CCN(C(=O)CN6CCC(c7ccc(NC8CCC(=O)NC8=O)cc7F)CC6)CC5)C4)c(=O)c3c2F)c1C#N` (centres unmarked) [Example 52, 6-[2-cyano-3-[[ethyl(methyl)sulfamoyl]amino]-6-fluorophenoxy]-3-[8-[2-[4-[4-[(2,6-dioxopiperidin-3-yl)amino]-2-fluorophenyl]piperidin-1-yl]acetyl]-8-azaspiro[4.5]decan-3-yl]-5-fluoro-4-oxoquinazoline] had a 50% degradation concentration (DC50) (A375.10 cells, 24 h) of 20.7 nM. The maximum response (Emax) under setting [1] amounted to 11.4%.

The molecule `CCN(C)S(=O)(=O)Nc1ccc(F)c(Oc2ccc3ncn([C@H]4COC5(CCN(C(=O)CN6CC[C@H](c7cc8c(cc7F)c(N7CCC(=O)NC7=O)nn8C)C(F)(F)C6)CC5)C4)c(=O)c3c2)c1C#N` (single isomer, unassigned) [Example 203] showed a half-maximal degradation concentration (DC50) (A375.10 cells, 24 h) of 37.5 nM. The maximal effect (Emax) under setting [1] came to 11.3%.

Turning to `Cn1nc(N2CCC(=O)NC2=O)c2cc(F)c(N3CCC(O)(CC(=O)N4CCC5(CC4)C[C@@H](n4cnc6ccc(Oc7c(F)ccc(NS(=O)(=O)C8CCCC8)c7C#N)cc6c4=O)CO5)CC3)cc21` [Example 191, N-[2-cyano-3-[3-[(3R)-8-[2-[1-[3-(2,4-dioxo-1,3-diazinan-1-yl)-5-fluoro-1-methylindazol-6-yl]-4-hydroxypiperidin-4-yl]acetyl]-1-oxa-8-azaspiro[4.5]decan-3-yl]-4-oxoquinazolin-6-yl]oxy-4-fluorophenyl]cyclopentanesulfonamide], the DC50 (A375.10 cells, 24 h) was 27.1 nM. Besides, the Emax under setting [1] came out at 26.8%.

As for `CCN(C)S(=O)(=O)Nc1ccc(F)c(Oc2ccc3ncn(CCCC4CCN(C(=O)CN5CCC(c6ccc(NC7CCC(=O)NC7=O)cc6F)CC5)CC4)c(=O)c3c2)c1C#N` (centres unmarked) [Example 6, 6-[2-cyano-3-[[ethyl(methyl)sulfamoyl]amino]-6-fluorophenoxy]-3-[3-[1-[2-[4-[4-[(2,6-dioxopiperidin-3-yl)amino]-2-fluorophenyl]piperidin-1-yl]acetyl]piperidin-4-yl]propyl]-4-oxoquinazoline], it took 22.7 nM to reach half-maximal degradation (A375.10 cells, 24 h) (DC50). The Emax under setting [1] came out at 11.5%.

As to `CCN(C)S(=O)(=O)Nc1ccc(F)c(Oc2ccc3ncn(C4CC5(CCN(C(=O)CN6CCC(c7ccc(NC8CCC(=O)NC8=O)cc7F)CC6)CC5)C4)c(=O)c3c2)c1C#N` (centres unmarked) [Example 22, 6-[2-cyano-3-[[ethyl(methyl)sulfamoyl]amino]-6-fluorophenoxy]-3-[7-[2-[4-[4-[(2,6-dioxopiperidin-3-yl)amino]-2-fluorophenyl]piperidin-1-yl]acetyl]-7-azaspiro[3.5]nonan-2-yl]-4-oxoquinazoline], for the setting “A375.10 cells, 24 h”, the DC50 was found to be 11.2 nM. Moreover, the maximal effect (Emax) under setting [1] worked out at 11.5%.

As for `CCN(C)S(=O)(=O)Nc1ccc(F)c(Oc2ccc3ncn([C@H]4COC5(CCN(C(=O)C[C@H]6CC[C@H](c7ccc8c(C9CCC(=O)NC9=O)nn(C)c8c7)CC6)CC5)C4)c(=O)c3c2)c1C#N` (single isomer, unassigned) [Example 169], half-maximal degradation (A375.10 cells, 24 h) (DC50) was put at 11.9 nM. The Emax under setting [1] was determined as 31.5%.

On to `CC(C)S(=O)(=O)Nc1ccc(F)c(Oc2ccc3ncn(-c4cnc(N5CCN(C(=O)CN6CCC(c7ccc(N[C@H]8CCC(=O)NC8=O)cc7F)CC6)CC5)nc4)c(=O)c3c2)c1C#N` [Example 112, N-[2-cyano-3-[3-[2-[4-[2-[4-[4-[[(3S)-2,6-dioxopiperidin-3-yl]amino]-2-fluorophenyl]piperidin-1-yl]acetyl]piperazin-1-yl]pyrimidin-5-yl]-4-oxoquinazolin-6-yl]oxy-4-fluorophenyl]propane-2-sulfonamide], for which the half-maximal degradation concentration (DC50) (A375.10 cells, 24 h) worked out at 6.47 nM. Under setting [1], the Emax was 8.79%.

Under “A375.10 cells, 24 h”, `CCN(C)S(=O)(=O)Nc1ccc(F)c(Oc2ccc3ncn(-c4cnc(N5CCN(C(=O)CN6CCC(c7ccc(N[C@H]8CCC(=O)NC8=O)cc7F)CC6)CC5)nc4)c(=O)c3c2O)c1C#N` [Example 136, 6-[2-cyano-3-[[ethyl(methyl)sulfamoyl]amino]-6-fluorophenoxy]-3-[2-[4-[2-[4-[4-[[(3S)-2,6-dioxopiperidin-3-yl]amino]-2-fluorophenyl]piperidin-1-yl]acetyl]piperazin-1-yl]pyrimidin-5-yl]-5-hydroxy-4-oxoquinazoline] displayed a DC50 of 16.3 nM. Further, the Emax under setting [1] worked out at 16.9%.

As to `CCN(C)S(=O)(=O)Nc1ccc(F)c(Oc2ccc3ncn(-c4cnc(N5CCN(C(=O)CN6CCC(c7ccc(N[C@H]8CCC(=O)NC8=O)cc7F)CC6)CC5)nc4)c(=O)c3c2)c1F` [Example 140, 3-[2-[4-[2-[4-[4-[[(3S)-2,6-dioxopiperidin-3-yl]amino]-2-fluorophenyl]piperidin-1-yl]acetyl]piperazin-1-yl]pyrimidin-5-yl]-6-[3-[[ethyl(methyl)sulfamoyl]amino]-2,6-difluorophenoxy]-4-oxoquinazoline], half-maximal degradation (A375.10 cells, 24 h) (DC50) was put at 27.8 nM. For the same molecule, the Emax under setting [1] amounted to 12.3%.

As to `CCN(C)S(=O)(=O)Nc1ccc(F)c(Oc2ccc3ncn(-c4cnn(C5CCN(C(=O)CN6CCC(c7c(F)cc(NC8CCC(=O)NC8=O)cc7F)CC6)CC5)c4)c(=O)c3c2)c1C#N` (centres unmarked) [Example 20, 6-[2-cyano-3-[[ethyl(methyl)sulfamoyl]amino]-6-fluorophenoxy]-3-[1-[1-[2-[4-[4-[(2,6-dioxopiperidin-3-yl)amino]-2,6-difluorophenyl]piperidin-1-yl]acetyl]piperidin-4-yl]pyrazol-4-yl]-4-oxoquinazoline], half-maximal degradation (A375.10 cells, 24 h) (DC50) was put at 14.4 nM. Also, under setting [1], the Emax is 17.7%.

Broadly, the DC50 is the concentration giving 50% degradation. A lower DC50 goes with degradation at low concentration. The term Emax denotes the size of the effect at its maximum, as opposed to the concentration needed.
